US4229584A, “Ureylenebis(anionic substituted phenylene carbonyl)imino naphthalene sulfonic acids and naphthalene carboxylic acids and their salts” (American Cyanamid Company, priority 1978, dated 1980)
Structures can show the parent of a compound that is named as a salt. Where two headings read alike, the source gives them in different places.

Assays:
shunt pathway = assay: Test, Code 036 (C-Shunt inhibitor): lysis of human erythrocytes in autologous serum via shunt pathway activated by cobra venom factor; format: cell-based; details: activity in wells, twofold serial dilution; higher well number indicates higher activity
Description: (§1) An active inhibitor protects C2 from C1 and C4; (ii) Test, Code 035 (C3-C9 inhibitor)--This test determines the ability of the late components of human complement (C3-C9) to lyse EAC 142 in the presence of appropriate dilutions of the test compound. An active inhibitor protects EAC 142 from lysis by human C3-C9; (iii) Test, Code 036 (C-Shunt inhibitor)--In this test human erythrocytes rendered fragile are lysed in autologous serum via the shunt pathway activated by cobra venom factor in the presence of appropriate dilutions of the test compound. Inhibition of the shunt pathway results in failure of lysis; (iv) Forssman Vasculitis Test--Here, the well known complement dependent lesion, Forssman vasculitis, is produced in guinea pigs by intradermal injection of rabbit anti-Forssman antiserum. The lesion is measured in terms of diameter, edema and hemorrhage and the extent to which a combined index of these is inhibited by prior intraperitoneal injection of the test compound at 200 mg/kg is then reported, unless otherwise stated; (v) Forssman Shock Test--Lethal shock is produced in guinea pigs by an i.v. injection of anti-Forssman antiserum and the harmonic mean death time of treated guinea pigs is compared with that of simultaneous controls; (vi) Complement Level Reduction Test--In this test, the above dosed guinea pigs, or others, are bled for serum and the complement level is determined in undiluted serum by the capillary tube method of U.S. Pat. No. 3,876,376 and compared to undosed control guinea pigs; and (vii) Cap 50 Test--Here, appropriate amounts of the test compound are added to a pool of guinea pig serum in vitro, after which the undiluted serum capillary tube assay referred to above is run. The concentration of compound inhibiting 50% is reported.
(§2) **Activity in wells, a serial dilution assay. Higher well number indicate
(§3) higher activity. The serial dilutions are twofold.

[1] = test system: late components of human complement (C3-C9); assay: Test, Code 035 (C3-C9 inhibitor): lysis of EAC 142 by late components of human complement; format: cell-based; details: activity in wells, twofold serial dilution; higher well number indicates higher activity
Description: as §1, §2, §3

human C1 = target: T1, human C1 (Homo sapiens, UniProt P09871); assay: Test, Code 026 (C1 inhibitor): protection of fluid phase human C2 from activated human C1; format: biochemical; details: activity in wells, twofold serial dilution; higher well number indicates higher activity
T1 construct: substrate fluid phase human C2, in presence of C4
Description: as §1, §2, §3

whole complement = assay: In vivo complement inhibition in guinea pigs (whole complement of serum, capillary tube assay); design: species or system guinea pig; details: Cavia porcellus, ip, intraperitoneal, 200 mg/kg
Description: as §1
With reference to Table I, guinea pigs weighing about 300 g were dosed intravenously (i.v.) or intraperitoneally (i.p.) with 200 mg/kg of the test compound dissolved in saline and adjusted to pH 7-8. […] The serum was tested for whole complement using the capillary tube assay. Percent inhibition was calculated by comparison with simultaneous controls. The results appear in Table I together with results of tests, Code 026, 035, 036, Cap 50, percent inhibition and Forssman shock.

complement system = details: cited from earlier work; for anticomplementary effect: British Journal of Experimental Pathology, 33, 327-339 (1952)
[2] = The New England Journal of Medicine, 286, 808-812 (1972); cited from earlier work
[3] = 0.5 h, 30 mins., read-out: In Vivo Activity (Guinea Pig) % Inhibition Intraperitoneal 30 mins.
[4] = 1 h, 60 mins., read-out: In Vivo Activity (Guinea Pig) % Inhibition Intraperitoneal 60 mins.
[5] = 2 h, 120 mins., read-out: In Vivo Activity (Guinea Pig) % Inhibition Intraperitoneal 120 mins.

T1 sequence (P09871 16-688): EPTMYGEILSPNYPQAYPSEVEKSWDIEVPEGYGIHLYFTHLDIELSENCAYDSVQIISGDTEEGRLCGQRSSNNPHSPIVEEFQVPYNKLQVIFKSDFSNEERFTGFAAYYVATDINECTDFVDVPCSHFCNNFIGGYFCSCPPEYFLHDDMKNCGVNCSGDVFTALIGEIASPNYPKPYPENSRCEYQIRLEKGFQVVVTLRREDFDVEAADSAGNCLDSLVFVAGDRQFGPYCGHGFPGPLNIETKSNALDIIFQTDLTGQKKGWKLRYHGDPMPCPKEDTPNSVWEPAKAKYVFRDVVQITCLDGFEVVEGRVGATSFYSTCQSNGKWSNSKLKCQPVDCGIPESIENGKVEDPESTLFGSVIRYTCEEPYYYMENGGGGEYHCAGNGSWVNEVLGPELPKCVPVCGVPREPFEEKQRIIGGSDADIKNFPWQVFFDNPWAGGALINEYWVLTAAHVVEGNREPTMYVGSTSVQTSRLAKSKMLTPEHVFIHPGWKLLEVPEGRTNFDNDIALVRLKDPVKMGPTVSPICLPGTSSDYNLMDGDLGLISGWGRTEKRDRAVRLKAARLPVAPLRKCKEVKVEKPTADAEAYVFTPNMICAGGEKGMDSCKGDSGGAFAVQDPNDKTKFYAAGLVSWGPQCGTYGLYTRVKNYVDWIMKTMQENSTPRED
T1 sequence (P00736 18-705 partner): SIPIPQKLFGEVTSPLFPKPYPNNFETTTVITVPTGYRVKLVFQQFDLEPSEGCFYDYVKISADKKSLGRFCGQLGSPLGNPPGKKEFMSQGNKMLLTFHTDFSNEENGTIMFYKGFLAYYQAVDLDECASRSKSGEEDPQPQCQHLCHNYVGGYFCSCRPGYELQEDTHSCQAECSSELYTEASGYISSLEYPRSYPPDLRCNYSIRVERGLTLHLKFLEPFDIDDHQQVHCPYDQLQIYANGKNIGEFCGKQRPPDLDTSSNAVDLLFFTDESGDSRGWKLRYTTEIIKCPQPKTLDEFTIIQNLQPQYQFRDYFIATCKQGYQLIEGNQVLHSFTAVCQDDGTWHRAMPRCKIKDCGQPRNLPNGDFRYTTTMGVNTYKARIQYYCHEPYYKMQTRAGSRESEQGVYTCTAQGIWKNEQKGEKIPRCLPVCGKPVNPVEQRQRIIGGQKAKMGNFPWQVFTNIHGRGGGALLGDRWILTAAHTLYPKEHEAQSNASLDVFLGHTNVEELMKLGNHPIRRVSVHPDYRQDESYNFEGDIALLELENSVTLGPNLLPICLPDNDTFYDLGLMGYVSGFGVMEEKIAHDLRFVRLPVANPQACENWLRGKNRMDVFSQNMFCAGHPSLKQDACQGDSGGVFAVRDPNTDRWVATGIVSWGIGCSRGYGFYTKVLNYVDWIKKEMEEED
T1 sequence (P02745 23-245 partner): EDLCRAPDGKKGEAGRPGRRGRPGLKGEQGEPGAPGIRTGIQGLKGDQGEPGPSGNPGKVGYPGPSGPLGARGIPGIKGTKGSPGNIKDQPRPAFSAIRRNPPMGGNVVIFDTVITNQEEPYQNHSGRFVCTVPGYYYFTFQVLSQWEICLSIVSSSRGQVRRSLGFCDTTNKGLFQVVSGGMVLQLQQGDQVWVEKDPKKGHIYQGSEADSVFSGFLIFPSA
T1 sequence (P02746 28-253 partner): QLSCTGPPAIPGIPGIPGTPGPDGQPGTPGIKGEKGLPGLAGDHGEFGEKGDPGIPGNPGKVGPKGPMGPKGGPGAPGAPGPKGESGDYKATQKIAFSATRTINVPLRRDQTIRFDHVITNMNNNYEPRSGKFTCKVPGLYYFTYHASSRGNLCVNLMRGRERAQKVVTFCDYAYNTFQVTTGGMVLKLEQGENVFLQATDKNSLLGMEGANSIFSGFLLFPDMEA
T1 sequence (P02747 29-245 partner): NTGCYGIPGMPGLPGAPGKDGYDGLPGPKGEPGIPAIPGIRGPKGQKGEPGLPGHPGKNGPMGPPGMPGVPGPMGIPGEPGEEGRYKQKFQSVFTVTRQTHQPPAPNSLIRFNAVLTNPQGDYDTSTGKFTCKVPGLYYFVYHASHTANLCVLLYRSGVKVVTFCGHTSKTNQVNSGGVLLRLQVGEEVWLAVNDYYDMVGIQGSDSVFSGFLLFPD

## CC(=O)Nc1ccc2c(S(=O)(=O)O)cc(S(=O)(=O)O)cc2c1NC(=O)c1ccc(NC(=O)Nc2ccc(C(=O)Nc3c(NC(C)=O)ccc4c(S(=O)(=O)O)cc(S(=O)(=O)O)cc34)c(S(=O)(=O)O)c2)cc1S(=O)(=O)O [5,5'-[Ureylenebis(2-sulfo-1,4-phenylenecarbonylimino)]bis[6-acetamido-1,3-naphthalenedisulfonic acid]hexasodium salt]
Shunt pathway
  Shunt Inhibition 036* Wells: +1 Wells
[1]
  C-Late 035* Wells: N
Human C1
  C1 026* Wells: +8 Wells
Whole complement; [3]
  change in vivo at 200 mg/kg: -19%
Whole complement; [4]
  change in vivo at 200 mg/kg: 8%
Whole complement; [5]
  change in vivo at 200 mg/kg: 4%

## O=C(Nc1ccc(C(=O)Nc2cc(S(=O)(=O)O)cc3cccc(S(=O)(=O)O)c23)c(S(=O)(=O)O)c1)Nc1ccc(C(=O)Nc2cc(S(=O)(=O)O)cc3cccc(S(=O)(=O)O)c23)c(S(=O)(=O)O)c1 [8,8'-[Ureylenebis(2-sulfo-4,1-phenylenecarbonyl)imino]di-1,6-naphthalenedisulfonic acid hexasodium salt]
Shunt pathway
  Shunt Inhibition 036* Wells: +1 Wells
[1]
  C-Late 035* Wells: +1 Wells
Human C1
  C1 026* Wells: +5 Wells
Whole complement; [3]
  change in vivo at 200 mg/kg: -10%
Whole complement; [4]
  change in vivo at 200 mg/kg: -18%
Whole complement; [5]
  change in vivo at 200 mg/kg: -31%

## Cc1ccc(C(=O)Nc2ccc(S(=O)(=O)O)c3cc(S(=O)(=O)O)cc(S(=O)(=O)O)c23)cc1NC(=O)c1cccc(NC(=O)Nc2cccc(C(=O)Nc3cc(C(=O)Nc4ccc(S(=O)(=O)O)c5cc(S(=O)(=O)O)cc(S(=O)(=O)O)c45)ccc3C)c2)c1 [Suramin]
Complement system; Clin. Exp. Immunol., 10, 127-138 (1972)
  inhibition of the complement system: competitive inhibitor of the complement system

## Nc1ccc2cc(S(=O)(=O)O)cc(O)c2c1N=Nc1ccc(NC(=O)Nc2ccc(N=Nc3c(N)ccc4cc(S(=O)(=O)O)cc(O)c34)c(S(=O)(=O)O)c2)cc1S(=O)(=O)O [chlorazol fast pink, 3,3'-ureylenebis-[6-(2-amino-8-hydroxy-6-sulfo-1-naphthylazo)]benzenesulfonic acid, tetrasodium salt]
Complement system
  anticomplementary effect: anticomplementary effect

## NCCCCCC(=O)O [epsilon-aminocaproic acid]
[2]
  treatment of hereditary angioneurotic edema: used with success

## NC[C@H]1CC[C@H](C(=O)O)CC1 [tranexamic acid]
[2]
  treatment of hereditary angioneurotic edema: used with success

## heparin
Complement system
  anticomplementary effect: anticomplementary effect
